Assay results taken from US11026945B2, “Protein kinase RNA-like endoplasmic reticulum kinase (PERK) inhibitors for prevention and/or treatment of lung injury and/or inflammation” (THE TRUSTEES OF THE UNIVERSITY OF PENNSYLVANIA, priority 2016, dated 2021).

What was measured:
AEC-I monolayers = assay: Monolayer permeability, FITC-labeled streptavidin binding to biotin; type: cell-based, rat; details: stretched monolayers (25%, 6 hrs), 1 μM PI pretreatment 18 hours
From the text: To obtain monolayer rat type-II alveolar epithelial cells (AEC-II), cells were isolated from Sprague-Dawley rats (250-300 g, N=30 purchased from Charles River Laboratories, Wilmington, Mass.) described by Tschumperlin D J, Margulies SS. Equibiaxial deformation-induced injury of alveolar epithelial cells in vitro. Am J Physiol. 1998; 275(6 Pt 1):L1173-83. Epub 1998/12/09 (PubMed PMID: 9843855), with modifications. Briefly, animals were killed and the lungs were harvested. The lung tissue was digested with elastase at 37° C. and distal airways were isolated. Following, cells were placed on rat IgG coated containing no serum for 90 minutes to eliminate contaminating leukocytes and parenchymal cells. This isolation method yielded approximately 95% pure alveolar epithelial cell population. 1.3 million cells were plated on 1 cm diameter fibronectin-coated custom made silastic membranes. In permeability studies, biotin were mixed with fibronectin and membranes were pretreated with oxygen plasma coating to ensure homogenous distribution of the fibronectin. Cells were cultured with 10% fetal bovine serum (FBS)-containing Minimal Essential Medium (MEM) containing low dose antibiotics for 3 days. 32 to 40 monolayers were per rat. On the 3rd day, matured monolayers were randomized to be exposed to one of the treatments for 24 hours (N=3 monolayers/treatment): • A. RNAiMax transfection reagent treatment using serum free media (Opti-MEM, Thermo Fisher Scientific, Waltham, Mass.). This is a negative control for siRNA experiments where serum free media is used for improved transfection efficiency; • B. non-targeting siRNA treatment ([…], Dharmacon) serves a negative control for transfection; • C. […]
The dose of siRNA and PI treatment was selected based on dose-response curves above (FIG. 2A-FIG. 2E). […] All membranes were treated with FITC-labeled streptavidin (Thermo Fisher Scientific) at the end of the experiment and light emission was detected at 488 nm with fluorescent microscopy (Nikon TE300, Melville, N.Y.). […]

[1] = system: ISR (p-EIF2α, ATF4, CHOP) in lung tissue; assay: Lung tissue ISR western blot in rat VILI model; type: in vivo
Description: The right lung was harvested. […] For cytokine analysis serum was used.
Total protein from cells and lung tissue were extracted using RIPA lysis buffer. Total protein was quantified with Pierce […] (Thermo Fisher Scientific). Western blotting for phosphorylated (p) and total (t) forms of EIF2α, p- and t-IRE1α, p- and t-PERK, ATF4, CHOP and XBP1 was performed. B-actin was used as loading control (Santa Cruz Biotechnologies, Santa Cruz, Calif.). The following primary antibodies were used: p-EIF2α (Ser 51) and t-EIF2α rabbit monoclonal antibody (Cell Signaling, Danvers, Mass.), p-IRE1α (Ser 724) and t-IRE1α rabbit monoclonal antibody (Abcam, Cambridge, Mass.), ATF4 rabbit polyclonal antibody (Sigma-Aldrich), CHOP (F-168) mouse polyclonal antibody (Santa Cruz), XBP-1 rabbit monoclonal antibody (Abcam) and B-actin mouse polyclonal antibody (Santa Cruz). For immunoprecipitation of PERK, p-PERK (Thr 981) antibody (Santa Cruz) was used and p-PERK (Thr 980) and t-PERK were detected with rabbit monoclonal antibodies (Cell signaling). N=4-8 biological replicates per conditions were used in immunoblot studies. Immunoblots were scanned and bend densities were analyzed using Image J software.

[2] = ventilated rats (VPI), 30 mg/kg oral gavage 4 hours before ventilation

With `Cn1cc(-c2ccc3c(c2)CCN3C(=O)Cc2cccc(C(F)(F)F)c2)c2c(N)ncnc21` [PI, 1-[5-(4-Amino-7-methyl-7H-pyrrolo[2,3-d]pyrimidin-5-yl)indolin-1-yl]-2-(3-trifluoromethylphenyl)ethanone] the monolayer permeability (AEC-I monolayers) was “significantly reduced”, the “p-EIF2α, ATF4 and CHOP in lung tissue” value ([1]; spontaneously breathing controls (CPI), 30 mg/kg oral gavage) was “did not affect” and the “VILI-mediated phosphorylation of EIF2α in lung tissue” value [1, 2] was “significantly reduced”. The “protein expression of ATF4 in lung tissue” value [1, 2] was “significantly reduced” and the “protein expression of CHOP in lung tissue” value [1, 2] was “significantly reduced”.
